This is an account of results in patent publication US5545639A, “Method of inhibiting transformed cells” (The United States of America as represented by the …, priority 1994, dated 1996).

In experiment [1] the test system is P388 murine lymphocytic leukemia cells. To be noted: mice inoculated with P388 cells; 2,9-DMP treatment with copper; cited from earlier work.
For experiment [2], the system named is L1210 cells. To be noted: 2,9-DMP with copper; cited from earlier work.
Experiment [3] concerns mouse L1210 cells. To be noted: coordinated copper complex, tissue culture; cited from earlier work.
The test system of experiment [4] is mouse L1210 leukemia cells. Put plainly: Example 1: growth of mouse L1210 leukemia cells with 2,9-DMP, with/without copper and BCS. The settings on record: for activity at 0.4 µM: at concentrations above about 0.4 μM. The class given is cell-based. The procedure:
The phenanthroline derivative 2,9-DMP was added to a culture of mouse L1210 leukemia cells alone (.smallcircle.), with copper sulfate (.circle-solid.), and with copper sulfate and bathocuproine sulfonate (.quadrature.). The concentrations of copper sulfate and bathocuproine sulfonate used in these experiments were both 25 μM. Methods used to grow the cells and to administer the test compounds were standard methods, well known to ordinary practitioners. The growth of the cells as a percent of control was determined, and the results were plotted in the graph of FIG. 1.

In experiment [5] the test system is L1210 mouse cells. As to the kind of experiment: Example 3: growth of L1210 mouse cells with bis(halomethyl)phenanthrolines plus copper, with or without BCS. To be noted: copper 10 μM, BCS 100 μM. The class given is cell-based. As to the method:
Bis(halomethyl)phenanthroline compounds were synthesized according to the method of Newkome et al., J. Org. Chem., 48, 5112-5114 (1983). Such compounds, namely, 2,9-bis(bromomethyl)phenanthroline and 2,9-bis(chloromethyl)phenanthroline, were added in the presence of copper, but with or without BCS (the copper chelator shown in Examples 1 and 2 to reduce inhibitory activity), to the culture media of L1210 mouse cells, using the same methods of Examples 1 and 2. The concentrations of copper and BCS used in these experiments were 10 μM and 100 μM, respectively. The growth of the cells as a percent of control were determined, and the results plotted in the graph of FIG. 3, wherein open squares (.quadrature.) represent the compound plus copper chelate and solid squares (.box-solid.) represent the compound together with both copper and BCS addition to the culture medium.

The subject of experiment [6] is mouse L1210 leukemia cells. As to the kind of experiment: Example 2: growth of mouse L1210 leukemia cells with monohalomethyl phenanthrolines, with/without copper and BCS. The experiment is classed as cell-based. As to the method:
The aforementioned monohalomethyl compounds were prepared and characterized as described by Newkome et al., J. Org. Chem., 54, 1766-1769 (1989). The compounds were then added to different cultures of mouse L1210 leukemia cells alone (.smallcircle.), with copper sulfate (.quadrature.), with BCS (.circle-solid.), or with BCS and copper sulfate (.box-solid.). The concentrations of copper and BCS used in these experiments were 10 μM and 100 μM, respectively. Methods used to grow the cells and to administer the test compounds were standard methods, well known to ordinary practitioners, and were similar to those used in Example 1. The growth of the cells as a percent of controls were determined, and the results were plotted in the graph of FIG. 2.

Where two headings read alike, the source gives them in different places.

On to `Cc1ccc2ccc3ccc(C)nc3c2n1` [2,9-DMP, 2,9-dimethyl-1,10-phenanthroline], for which, in experiment [1], the “increase in life span” value is given as 45%. Further, the “inhibitory response of L1210 tumor in implanted animals” value in experiment [2] is “evident, although weak”. Further, in experiment [3], the “concentration effective for killing of L1210 cells” value is recorded as “nanomolar concentrations”. Moreover, the activity at 0.4 µM in experiment [4] (Mus musculus, L1210, 2,9-DMP alone, read-out: cell growth as percent of control) is less than 20%; in experiment [4] (Mus musculus, L1210, with copper ion (copper sulfate 25 μM), read-out: cell growth as percent of control), less than 10%. In experiment [4] (Mus musculus, L1210, with copper ion (copper sulfate 25 μM), at concentrations above about 0.1 μM, read-out: cell growth as percent of control), the activity at 0.1 µM is less than 20%. Further, in experiment [4] (copper chelated), the “concentration inhibiting to the same level (20% of control) relative to copper-chelated monobrominated phenanthroline” value is given as “less than one-tenth of that concentration”.

`BrCc1ccc2ccc3ccc(CBr)nc3c2n1` [2,9-bis(bromomethyl)-1,10-phenanthroline]: the “difference in inhibitory effect, presence vs absence of available copper (BCS)” value in experiment [5] is reported as “about 10%”.

On to `Cc1ccc2ccc3ccc(CBr)nc3c2n1` [2-BM-9-MP, 2-bromomethyl-9-methyl-1,10-phenanthroline], for which the “inhibitory activity compared with unhalogenated parent compound of Example 1” value in experiment [6] was “less than that of the unhalogenated parent compound”.

`Cc1ccc2ccc3ccc(CCl)nc3c2n1` [2-CM-9-MP, 2-chloromethyl-9-methyl-1,10-phenanthroline]: the “inhibitory activity compared with unhalogenated parent compound of Example 1” value in experiment [6] is reported as “less than that of the unhalogenated parent compound”.
